Where two headings read alike, the source gives them in different places.
What was measured:
Mice [1] = test: Maximal electroshock seizure (MES) test, mice (ip);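 also: male albino CF No. 1 mice dosed ip, MES stimulus 50 mA at 60 Hz lasting 0.2 s, efficacy endpoint is loss of hind leg tonic extension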
Experimental: (§2) The maximal electroconvulsive shock (MES) test is regarded as a standard screen for anticonvulsant activity in terms of inhibition of seizure spread in generalized tonic-clonic seizures.
(§3) Groups of at least 8 male albino CF No. 1 mice or male albino Sprague-Dawley rats are treated with 10 mL/kg i.p. or 4 mL/kg p.o. of the test compound solution, respectively. The electrical stimulus in the MES test is 50 mA at 60 Hz for mice and 150 mA at 60 Hz for rats, both delivered for 0.2 sec. Abolition of the hind leg tonic extensor component of the seizure is used as the endpoint.

[2] = Neurological toxicity, rotorod test, mice (ip); type: in vivo; conditions: male, CF No 1, mouse, in vivo
Experimental: (§1) Tests are conducted in groups of at least 8 mice or rats to determine the intrinsic neurotoxicity (neuromuscular impairment) after administration of the test compound by the route of administration to be used in the pharmacology studies. Neurotoxicity is determined in male CF No 1 mice by the rotarod procedure. Inability of the mouse to maintain its equilibrium in 3 trials during 1 min on this rotating rod (6 rpm) is used as an indication of such impairment. In Sprague-Dawley rats, minimal motor impairment (MMI) is determined by overt evidence of ataxia, abnormal gait, and stance.

Rat [3] = test: Maximal electroshock seizure (MES) test, rat (po); type: in vivo; conditions: for ED50: read-out: Rat (po) MES, ED50
Experimental: as §2, §3

Mice [4] = test: Formalin test (mice, ip); type: in vivo; conditions: for Formalin Assay Acute (%) / Formalin Assay Inflam. (%): mice, ip; for Formalin Test (mice, ip) Inflammatory (%): duration of licking as percent of control, late phase
Experimental: Compounds of the present invention were active in treating pain in a formalin test carried out in accordance with standard techniques, as described in S. Hunskaar et al., J. Neurosci. Methods 14: 69-76 (1985). Briefly, 0.5% formalin is injected into the mouse hind paw to elicit a bi-phasic licking response, where the first acute phase is thought to correspond to the direct stimulation of peripheral fibers and the second (inflammatory) phase is caused by the release of inflammatory mediators.
Spinal/supraspinal plasticity of nociception is considered as a molecular basis for neuropathic pain particularly during the second (late) phase of the test (Dubuisson & Dennis, 1977; Coderre et al., 1990; Coderre & Melzack, 1992), during which most clinically used drugs against neuropathic pain are active.

Rats = test: Hippocampal kindling test, rats (ip); type: in vivo; conditions: for ED50: Rattus norvegicus, ip, read-out: Hippocampal Kindled Rats (ip) ED50 (interval)
Experimental: The kindling model provides a tool to predict a test compound's activity in complex partial seizures.
Male albino Sprague-Dawley rats (n=8) are kindled to a Stage 5 behavioral seizure. They are treated with an appropriate i.p. dose of the test compound after a 1-week, stimulus-free period. The test compound is evaluated for its effect on kindled motor seizures (seizures scores of 4 and 5), limbic behavior seizures (seizure scores between 1 and 3) and after-discharge duration. After 15 min, each rat is stimulated every 30 min for 3-4 h. Following each stimulation, individual seizure scores and after-discharge duration are recorded. The group mean and standard error of the mean (SEM) are calculated for each parameter.

Mice [5] = conditions: cited from earlier work
Rat [6] = conditions: cited from earlier work
Rat [7] = test: Behavioral toxicity, rat (po); type: in vivo; conditions: behavioral toxicity
Experimental: as §1

Mice [8] = test: Neurological toxicity, rotorod test, mice (ip); type: in vivo; conditions: for Mice (ip) Tox, Td50: rotorod test; for Mice (ip) Tox, TD50: Table b500, rotorod test
Experimental: as §1

Mice [9] = test: 6 Hz test, mice (ip); type: in vivo; conditions: Mus musculus, ip, intraperitoneally
[10] = rotorod test, read-out: Mice (ip) Tox, Td50
[11] = Table b502, protective index (TD50/ED50)
[12] = rotorod test, read-out: Mice (ip) Tox, TD50

COC[C@@H](NC(C)=O)C(=O)NCc1ccc([N+](=O)[O-])cc1 [F, reference compound]
MES ED50 (Mice [1]; ip): >100, <300 mg/kg

COC[C@@H](NC(C)=O)C(=O)NCc1ccc(NCc2cccc(F)c2)cc1 [(R)-17, (R)—N-4-(3-Fluorobenzylamino)benzyl 2-Acetamido-3-methoxypropionamide]
TD50 [2, 10]: 30 to 100 mg/kg | melting point: 78 to 81 °C | Mice (ip) MES, ED50 (Mice [1]; Table b501, intraperitoneally): >10, <30 [0.5] mg/kg

COCc1ccc(CNC(=O)[C@@H](COC)NC(C)=O)cc1
melting point: 119 to 120 °C

COC[C@@H](NC(C)=O)C(=O)NCc1ccc(N=[N+]=[N-])cc1 [(R)-5, (R)—N-(4-Azidobenzyl)-2-acetamido-3-methoxypropanamide]
Rat (po) PI (Rat [3]; PI=TD50/ED50): >64 | Formalin Assay Acute (%) (Mice [4]; dose 8.0 (mg)): 59% | Formalin Assay Inflam. (%) (Mice [4]; dose 8.0 (mg)): 106% | melting point: 149 to 150 °C | Mice (ip) PI (Mice [1]; ip, PI=TD50/ED50): 5.5

CCCC(CCC)C(=O)O [valproate]
Formalin Test (mice, ip) Inflammatory (%) (Mice [4]; dose 300 mg/kg): 67 (20) % | ED50 (Rats; rats): 214 mg/kg | Mice (ip) Mes, ED50 (Mice [5]; Ref 30, 16, 32): 270 [0.25] mg/kg | Mice (ip) PI (Mice [5]; Ref 32): 1.6 | Mice (ip) MES, ED50 (Mice [5]; reference drugs marked h): 270 [0.25] | Mice (ip) PI (Mice [5]; reference drugs marked h): 1.6 | Rat (po) MES, ED50 (Rat [6]; Ref 16, 32): 490 [0.5] mg/kg | Rat (po) PI (Rat [6]; Ref 32): 0.6 | Rat (po) MES, ED50 (Rat [6]; reference drugs marked h): 490 [0.5] | Rat (po) PI (Rat [6]; reference drugs marked h): 0.6

CC(=O)NCC(=O)NCc1ccc(OCc2cccc(F)c2)cc1 [compound 5, N-4-(3-Fluorobenzyloxy)benzyl 2-Acetamidoacetamide]
Rat (po) PI (Rat [3]; Table b500, protective index (TD50/ED50)): >16 | Rat (po) Tox, TD50 (Rat [7]; Table b500, orally): >500 [1.0] mg/kg

COC[C@H](NC(C)=O)C(=O)NCc1ccc(N=[N+]=[N-])cc1 [(S)-5, (S)—N-(4-Azidobenzyl)-2-acetamido-3-methoxypropanamide]
TD50 ([2]; read-out: Mice (ip) Tox, TD50): > 300 mg/kg | melting point: 149 to 150 °C

COC[C@@H](NC(C)=O)C(=O)NCc1ccc(COCc2cccc(F)c2)cc1 [(R)-18, (R)—N-4-(((3-Fluoro)benzyloxy)methyl)benzyl 2-Acetamido-3-methoxypropionamide]
Mice (ip) Tox, Td50 (Mice [8]): >30, <100 [0.5] mg/kg | Mice (ip) MES, ED50 (Mice [1]; Table b501, intraperitoneally): >30, <100 [0.5] mg/kg

COC[C@H](NC(C)=O)C(=O)NCc1ccc(OCc2cccc(F)c2)cc1 [(S)-3, (S)-2-Acetamido-N-(4-(3-fluorobenzyloxy)benzyl)-3-methoxypropanamide]
Mice (ip) MES, ED50 (Mice [1]; ip): >300 [0.5]

COC[C@@H](NC(C)=O)C(=O)NCc1ccc(/C=C/c2cccc(F)c2)cc1 [(R)-14, (2-R,E)-N-4-(3-Fluorostyryl)benzyl 2-Acetamido-3-methoxypropionamide]
ED50 (Mice [9]): < 30 mg/kg | TD50 [2, 10]: 100 to 300 mg/kg | melting point: 206 to 208 °C | Mice (ip) MES, ED50 (Mice [1]; Table b501, intraperitoneally): >30, <100 [0.5] mg/kg

COC[C@@H](NC(C)=O)C(=O)NCc1ccc(COc2cccc(F)c2)cc1 [(R)-16, (R)—N-4-((3-Fluorophenoxy)methyl)benzyl 2-Acetamido-3-methoxypropionamide]
Rat (po) PI (Rat [3]; Table b501, protective index (TD50/ED50)): >21 | Mice (ip) Tox, Td50 (Mice [8]): 10 [0.25] mg/kg | Mice (ip) MES, ED50 (Mice [1]; Table b501, intraperitoneally): 5.9 [0.25] mg/kg | Mice (ip) PI (Mice [1]; Table b501, ip, protective index (TD50/ED50)): 1.8

COCCCc1ccc(CNC(=O)[C@@H](COC)NC(C)=O)cc1
melting point: 105 to 107 °C

COC[C@@H](NC(C)=O)C(=O)NCc1ccc(C#Cc2cccc(F)c2)cc1 [(R)-15, (R)—N-4-((3-Fluorophenyl)ethynyl)benzyl 2-Acetamido-3-methoxypropionamide]
ED50 (Rat [3]; orally): 1.4 mg/kg | TD50 [2, 10]: 100 to 300 mg/kg | melting point: 200 to 202 °C | Mice (ip) MES, ED50 (Mice [1]; Table b501, intraperitoneally): >30, <100 [1.0, 4.0] mg/kg

CC(=O)N[C@H](C)C(=O)NCc1ccc(OCc2cccc(F)c2)cc1
melting point: 158 °C

CC(=O)N[C@@H](C(=O)NCc1ccc(OCc2cccc(F)c2)cc1)C(C)(C)C
melting point: 64 to 66 °C

CC(=O)NC(C(=O)NCc1ccccc1)c1ccccc1 (centres unmarked) [C, reference compound]
MES ED50 (Mice [1]; ip): 32 mg/kg

CC(=O)NC(C(=O)NCc1ccc(C)cc1)c1ccccc1 (centres unmarked) [D, reference compound]
MES ED50 (Mice [1]; ip): ~300 mg/kg

COC[C@@H](NC(C)=O)C(=O)NCc1ccccc1 [H, reference compound]
Formalin Assay Acute (%) (Mice [4]; dose 16 (mg)): 100% | Formalin Assay Inflam. (%) (Mice [4]; dose 16 (mg)): 44%

CCC1(c2ccccc2)C(=O)NC(=O)NC1=O [phenobarbital]
ED50 (Rats): 20 mg/kg

COC[C@@H](NC(C)=O)C(=O)NCc1ccc(OCc2ccccc2F)cc1 [(R)-21, (R)—N-4-(2-Fluorobenzyloxy)benzyl 2-Acetamido-3-methoxypropionamide]
Rat (po) PI (Rat [3]; [11]): >45 | TD50 [2, 12]: 37 mg/kg | melting point: 173 to 174 °C | Mice (ip) MES, ED50 (Mice [1]; Table b502, intraperitoneally): 6.7 [0.25] (4.8-9.1) mg/kg

COC[C@@H](NC(C)=O)C(=O)NCc1ccccc1 [(R)-B, (2R)-2-(acetylamino)-N-benzyl-3-methoxypropanamide, reference compound]
Formalin Test (mice, ip) Inflammatory (%) (Mice [4]; dose 5 mg/kg): 31 [<0.01] % | ED50 (Rats): 14 mg/kg

CC(=O)NC(C(=O)NCc1ccc(OCc2cccc(F)c2)cc1)c1ccccn1 (racemic) [(R, S)-9, N-4-(3-Fluorobenzyloxy)benzyl 2-Acetamido-2-(pyridin-2-yl)acetamide]
TD50 [2, 12]: 210 mg/kg | Rat (po) Tox, TD50 (Rat [7]; Table b500, orally): >30 [4] mg/kg | melting point: 154 to 155 °C

COC[C@@H](NC(C)=O)C(=O)NCc1ccc(OCCc2cccc(F)c2)cc1 [(R)-19, (R)—N-4′-((3″-Fluoro)phenethoxy)benzyl 2-N-Acetamido-3-methoxypropionamide]
TD50 [2, 10]: 30 to 100 mg/kg | melting point: 147 to 148 °C | Mice (ip) MES, ED50 (Mice [1]; Table b501, intraperitoneally): >30, <100 [0.5, 4.0] mg/kg

COC[C@@H](NC(C)=O)C(=O)NCc1ccc(OCc2ccccc2)cc1 [(R)-20, (R)—N-4′-(Benzyloxy)benzyl 2-N-Acetamido-3-methoxypropionamide]
ED50 (Rat [3]; Rattus norvegicus, Table b502, orally): 5.6 mg/kg | Rat (po) PI (Rat [3]; [11]): >45 | TD50 [2, 12]: 22 mg/kg | Rat (po) Tox, TD50 (Rat [7]; Table b502, orally): >250 [1.0] mg/kg | melting point: 149 °C | Mice (ip) MES, ED50 (Mice [1]; Table b502, intraperitoneally): 5.8 [0.25] (4.4-7.2) mg/kg | Mice (ip) PI (Mice [1]; Table b502, ip, protective index (TD50/ED50)): 3.8

CC(=O)N[C@@H](C)C(=O)NCc1ccc(OCc2cccc(F)c2)cc1 [(S)-6, (S)—N-4-(3-Fluorobenzyloxy)benzyl 2-Acetamidopropionamide]
Mice (ip) Tox, TD50 (Mice [8]): >300 [0.5] mg/kg | Rat (po) Tox, TD50 (Rat [7]; Table b500, orally): >30 [0.25 to mg/kg | melting point: 153 to 154 °C

COC[C@@H](NC(C)=O)C(=O)NCc1ccc(CCc2cccc(F)c2)cc1 [(R)-13]
TD50 [2, 10]: 30 to 100 mg/kg | Rat (po) Tox, TD50 (Rat [7]; Table b501, orally): >30 [1] mg/kg | melting point: 134 to 136 °C | Mice (ip) MES, ED50 (Mice [1]; Table b501, intraperitoneally): >10, <30 [0.5] mg/kg

COC[C@H](NC(C)=O)C(=O)NCc1ccc(OCc2cccc(F)c2)cc1 [(S)-10, (S)-2-Acetamido-N-(4-(3-fluorobenzyloxy)benzyl)-3-methoxypropanamide]
Mice (ip) Tox, TD50 (Mice [8]): >300 mg/kg | Mice (ip) Mes, ED50 (Mice [1]; Table b500, intraperitoneally): >300 mg/kg

O=C1NC(=O)C(c2ccccc2)(c2ccccc2)N1 [phenytoin]
Formalin Test (mice, ip) Inflammatory (%) (Mice [4]; dose 6 mg/kg): 21 (5) % | ED50 (Rats; rats): 34 mg/kg | Preliminary Hippocampal Kindling Test (Rats) Seizure Score, Drug (Rats; rats, after drug (pre-drug score in neighbouring column)): 3 | Rat (po) MES, ED50 (Rat [6]; Ref 16, 32): 30 [4.0] mg/kg | Rat (po) PI (Rat [6]; Ref 32): >100 | Rat (po) MES, ED50 (Rat [6]; reference drugs marked h): 30 [4] | Rat (po) PI (Rat [6]; reference drugs marked h): >100

COC[C@@H](NC(C)=O)C(=O)NCc1ccc(OCc2ccc(F)cc2)cc1 [(R)-22, (R)—N-4-(4-Fluorobenzyloxy)benzyl 2-Acetamido-3-methoxypropionamide]
Rat (po) PI (Rat [3]; [11]): >86 | TD50 [2, 12]: 30 to 100 mg/kg | melting point: 166 to 167 °C | Mice (ip) MES, ED50 (Mice [1]; Table b502, intraperitoneally): >10, <30 [0.5] mg/kg
